In US7381749B2, “Sulfonamides as inhibitors of histone deacetylase for the treatment of disease” (Kalypsys, Inc., priority 2004, dated 2008) one finds IC50 data, which are given here for 12 compounds.

The subject of assay [1] is HDAC. The assay can be described thus: In vitro HDAC-inhibition assay (Fluor de Lys fluorescent substrate). Type of assay: biochemical. The settings on record: HDAC enzyme source (e.g. partially purified nuclear extract or immunopurified HDAC complexes). On the procedure:
In vitro HDAC-Inhibition Assay:
This assay measures a compound's ability to inhibit acetyl-lysine deacetylation in vitro and was used as both a primary screening method as well as for IC50 determinations of confirmed inhibitors. The assay is performed in vitro using an HDAC enzyme source (e.g. partially purified nuclear extract or immunopurified HDAC complexes) and a proprietary fluorescent substrate/developer system (HDAC Quantizyme Fluor de Lys Fluorescent Activity Assay, BIOMOL). The assay is run in 1,536-well Greiner white-bottom plates using the following volumes and order of addition: • Step 1: Enzyme (2.5 ul) source added to plate (from refrigerated container) • Step 2: Compounds (50 nl) added with pin transfer device • Step 3: Fluor de Lys (2.5 ul) substrate added, incubate at RT, 30 minutes • Step 4: Developer (5 ul) solution is added (containing TSA), to stop reaction • Step 5: Plate Reader—data collection • The deacetylated fluorophore is excited with 360 nm light and the emitted light (460 nm) is detected on an automated fluorometric plate reader (Aquest, Molecular Devices).

Assay [2] concerns HDAC in cells. The assay can be described thus: Cellular IC50 (cellular assays: histone hyperacetylation cytoblot / differential cytotoxicity). Type of assay: cell-based. The conditions noted are these: transformed cell lines (e.g. HeLa, A549, MCF-7); cell line not specified. As to the method: These two secondary assays evaluates a compound's ability to inhibit HDAC in cells by measuring cellular histone acetylation levels. The cytoblot facilitates quantitative EC50 information for cellular HDAC inhibition. Transformed cell lines (e.g. HeLa, A549, MCF-7) are cultured under standard media and culture conditions prior to plating.
Cells (approx. 2,500/well) are allowed to adhere 10-24 hours to wells of a 384-well Greiner PS assay plate in media containing 1-5% serum. Cells are treated with appropriate compound and specific concentrations for 0 to 24 hours. Cells are washed once with PBS (60 ul) and then fixed (95% ethanol, 5% acetic acid or 2% PFA) for 1 minute at RT (30 ul). Cells are blocked with 1% BSA for 1 hour and washed and stained with antibody (e.g. anti-Acetylated Histone H3, Upstate Biotechnology), followed by washing and incubation with an appropriate secondary antibody conjugated to HRP or fluorophore. For luminescence assays, signal is generated using Luminol substrate (Santa Cruz Biotechnology) and detected using an Aquest plate reader (Molecular Devices).
Differential Cytotoxicity Assay:
HDAC inhibitors display differential cytotoxicity toward certain transformed cell lines. Cells are cultured according to standard ATCC recommended conditions that are appropriate to each cell type. Compounds were tested for their ability to kill different cell types (normal and transformed) using the ATPlite luminescence ATP detection assay system (Perkin Elmer). Assays are run in either 384-well or 1536-well Greiner PS plates. Cells (30 ul or 5 ul, respectively) are dispensed using either multichannel pipette for 384-well plates, or proprietary Kalypsys bulk liquid dispenser for 1536-well plates. Compounds added using proprietary pin-transfer device (500 nL or 5 nL) and incubated 5 to 30 hours prior to analysis. Luminescence is measured using Aquest plate reader (Molecular Devices).

pIC50: −log10 of the molar value.

For `CC(=O)SCC(=O)c1ccc(NS(=O)(=O)c2ccc(OC(F)(F)F)cc2)cc1Cl` [Example 14, Thioacetic acid S-{2-[2-chloro-4-(4-trifluoromethoxy-benzenesulfonylamino)-phenyl]-2-oxo-ethyl}ester], the pIC50 in assay [1] is above 6.00; in assay [2], above 4.30.
With `CCS(=O)(=O)Nc1ccc(C(=O)CSC(C)=O)cc1` [Example 22, Thioacetic acid S-[2-(4-ethanesulfonylamino-phenyl)-2-oxo-ethyl]ester], the pIC50 is above 6.00 in assay [1] and above 5.00 in assay [2].
With `CC(=O)SCC(=O)c1ccc(NS(=O)(=O)c2ccccc2F)cc1` [Example 35], the negative logarithm of the IC50 (pIC50) in assay [1] and in assay [2] was above 6.00 in each case.
For the compound `CC(=O)SCC(=O)c1ccc(NS(=O)(=O)c2ccccc2Cl)cc1` [Example 38], the negative logarithm of the IC50 (pIC50) in assay [1] and in assay [2] was above 6.00 each time.
Consider `COc1cccc(S(=O)(=O)Nc2ccc(C(=O)CSC(C)=O)cc2)c1` [Example 21, Thioacetic acid S-{2-[4-(3-methoxy-benzenesulfonylamino)-phenyl]-2-oxo-ethyl}ester], for which the pIC50 in assay [1] and in assay [2] was above 6.00 throughout.
`CC(=O)SCC(=O)c1ccc(NS(=O)(=O)c2ccc(Cl)cc2)cc1` [Example 36]: the negative logarithm of the IC50 (pIC50) in assay [1] and in assay [2] was above 6.00 throughout.
Turning to `CN(C)c1ccc(C(=O)SCC(=O)c2ccc(NS(=O)(=O)c3ccc(OC(F)(F)F)cc3)cc2)cc1` [Example 07], the values for the negative logarithm of the IC50 (pIC50) in assay [1] and in assay [2] were above 6.00 and above 5.00, respectively.
In the same order, the values of `COc1cccc(S(=O)(=O)Nc2ccc(C(=O)CSC(C)=O)cn2)c1` [Example 50, Thioacetic acid S-{2-[6-(3-methoxy-benzenesulfonylamino)-pyridin-3-yl]-2-oxo-ethyl}ester] are above 6.00 and above 6.00.
Taken in the same sequence, the figures for `CC(=O)SCC(=O)c1ccc(NS(=O)(=O)c2cccc(C(F)(F)F)c2)cc1` [Example 17, Thioacetic acid S-{2-oxo-2-[4-(3-trifluoromethyl-benzenesulfonylamino)-phenyl]-ethyl}ester] were above 6.00 and above 5.00.
For `CC(=O)SCC(=O)c1ccc2c(c1)CCN2S(=O)(=O)c1ccccc1` [Example 48, Thioacetic acid S-[2-(1-benzenesulfonyl-2,3-dihydro-1H-indol-5-yl)-2-oxo-ethyl]ester], the pIC50 is above 6.00 in assay [1] and above 5.00 in assay [2].
In the same order, the values of `CC(=O)SCC(=O)c1ccc2c(ccn2S(=O)(=O)c2ccccc2)c1` [Example 49, Thioacetic acid S-[2-(1-benzenesulfonyl-1H-indol-5-yl)-2-oxo-ethyl]ester] are above 6.00 and above 6.00.
As to `CC(=O)SCC(=O)c1ccc(NS(=O)(=O)c2ccc(C)cc2)cc1` [Example 16, Thioacetic acid S-{12-oxo-2-[4-(toluene-4-sulfonylamino)-phenyl]-ethyl}ester], the negative logarithm of the IC50 (pIC50) in assay [1] and in assay [2] was above 6.00 each time.
